According to patent US10934274B2, “Quinoline derivatives as TAM RTK inhibitors” (Qurient Co., Ltd., priority 2015, dated 2021):

Legend:
Axl = target: T1, Axl (Homo sapiens, UniProt P30530); test: LanthaScreen Eu kinase binding assay, Axl; conditions: Tracer 236
T1 construct: purchased Life Technologies
T1 sequence (P30530 26-894): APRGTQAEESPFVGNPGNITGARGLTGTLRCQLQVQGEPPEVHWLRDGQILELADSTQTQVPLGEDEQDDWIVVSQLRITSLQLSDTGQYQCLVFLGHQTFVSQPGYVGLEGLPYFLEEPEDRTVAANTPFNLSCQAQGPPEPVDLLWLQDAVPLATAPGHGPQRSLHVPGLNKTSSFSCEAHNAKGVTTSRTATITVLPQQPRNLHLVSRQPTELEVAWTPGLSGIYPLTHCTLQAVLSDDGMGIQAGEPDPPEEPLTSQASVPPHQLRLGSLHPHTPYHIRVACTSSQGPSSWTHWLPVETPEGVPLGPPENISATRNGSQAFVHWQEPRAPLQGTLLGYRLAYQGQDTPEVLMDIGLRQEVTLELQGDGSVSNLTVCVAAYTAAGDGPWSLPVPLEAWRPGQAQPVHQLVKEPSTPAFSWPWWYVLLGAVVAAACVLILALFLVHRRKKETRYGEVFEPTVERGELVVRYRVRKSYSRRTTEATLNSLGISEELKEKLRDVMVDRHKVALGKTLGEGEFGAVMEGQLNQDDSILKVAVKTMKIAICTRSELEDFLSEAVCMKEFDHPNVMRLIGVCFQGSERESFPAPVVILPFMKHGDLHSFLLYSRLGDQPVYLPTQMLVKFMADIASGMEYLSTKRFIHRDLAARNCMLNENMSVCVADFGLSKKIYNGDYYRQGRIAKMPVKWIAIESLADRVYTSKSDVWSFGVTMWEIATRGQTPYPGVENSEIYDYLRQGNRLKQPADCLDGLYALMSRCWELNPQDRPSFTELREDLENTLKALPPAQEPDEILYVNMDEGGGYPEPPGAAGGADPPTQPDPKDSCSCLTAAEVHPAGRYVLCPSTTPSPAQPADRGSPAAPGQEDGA

TYRO3 = target: T2, TYRO3 (Homo sapiens, UniProt Q06418); test: LanthaScreen Eu kinase binding assay, TYRO3; conditions: Tracer 236
T2 construct: purchased Life Technologies
T2 sequence (Q06418 41-890): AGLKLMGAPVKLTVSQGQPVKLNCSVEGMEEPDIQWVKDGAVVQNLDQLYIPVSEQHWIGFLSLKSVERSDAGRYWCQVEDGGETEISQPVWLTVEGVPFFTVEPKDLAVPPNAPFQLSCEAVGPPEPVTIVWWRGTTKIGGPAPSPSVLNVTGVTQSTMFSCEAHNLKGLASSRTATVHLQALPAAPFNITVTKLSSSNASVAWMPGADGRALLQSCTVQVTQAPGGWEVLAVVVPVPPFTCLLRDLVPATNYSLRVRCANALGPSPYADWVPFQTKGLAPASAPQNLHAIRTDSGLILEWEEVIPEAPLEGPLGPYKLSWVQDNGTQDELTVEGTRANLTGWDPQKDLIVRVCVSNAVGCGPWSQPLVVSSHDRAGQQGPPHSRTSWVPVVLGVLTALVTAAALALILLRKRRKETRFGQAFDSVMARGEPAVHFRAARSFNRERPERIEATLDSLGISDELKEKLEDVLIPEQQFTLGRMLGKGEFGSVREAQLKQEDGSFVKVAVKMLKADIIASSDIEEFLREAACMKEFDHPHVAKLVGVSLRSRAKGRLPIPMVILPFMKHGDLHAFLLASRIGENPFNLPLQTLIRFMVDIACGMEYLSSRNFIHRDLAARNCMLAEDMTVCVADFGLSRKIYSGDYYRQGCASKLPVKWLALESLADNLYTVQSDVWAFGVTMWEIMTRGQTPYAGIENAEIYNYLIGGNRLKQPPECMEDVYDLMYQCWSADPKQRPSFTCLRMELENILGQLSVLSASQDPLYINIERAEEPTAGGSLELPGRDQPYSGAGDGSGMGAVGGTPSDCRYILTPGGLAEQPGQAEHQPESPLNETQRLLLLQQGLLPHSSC

HCC827/ER cells = test: WST-1 cell viability assay in erlotinib-resistant cells; conditions: compound combined with Erlotinib at constant 1:1 ratio, 3 days, FBS 1%
Protocol: The killed cells were discarded and the remaining cells were cultured in a drug-free medium up to 80% confluence. Subsequently, cells were continuously exposed to increasing drug doses of up to 10 μM over a period of 8 months.
HCC827/ER cells were seeded in a 96-well plate with their respective media containing 10% FBS at 5000 cells/well. After seeding, the HCC827/ER cells were incubated for approximately 24 hours. […] The viability of the HCC827/ER cells was determined by adding WST-1 reagent according to Manufacturer's instructions (DoGenbio co., Ltd) and incubating for four hours. The plates were then read using an absorbance of 440 nm on Tecan Microplate reader (Infinite M200 pro, TECAN). The HCC827/ER cells' viability were calculated relative to vehicle (DMSO) control wells.

Row | SMILES | Kd (Axl) [nM] | Kd (TYRO3) [nM] | Combination effect of compound and erlotinib on inhibition activity in Erlotinib-resistant cell-line (HCC827/ER cells)
1 | CCOc1cn(CCOC(F)(F)F)nc1C(=O)Nc1ccc(Oc2ccnc3cc(OC)c(OC)cc23)cn1 [Compound 38] | < 100 | 100 to 1000 | synergistic effect
2 | CCOc1cn(-c2cnccc2CN(C)C)nc1C(=O)Nc1ccc(Oc2ccnc3cc(OC)c(OC)cc23)cn1 [Compound 73] | < 100 | 100 to 1000 | –
3 | CCOc1cn(-c2cnsc2)nc1C(=O)Nc1ccc(Oc2ccnc3cc(OC)c(OC)cc23)cn1 [Compound 39] | < 100 | < 100 | –
4 | CCOc1cn(-c2ccoc2)nc1C(=O)Nc1ccc(Oc2ccnc3cc(OC)c(OC)cc23)cn1 [Compound 33] | < 100 | < 100 | –
5 | CCOc1cn(-c2ccncc2C)nc1C(=O)Nc1ccc(Oc2ccnc3cc(OC)c(OC)cc23)cn1 [Compound 34] | < 100 | < 100 | –
6 | CCOc1cn(C2CCCN(C(N)=O)C2)nc1C(=O)Nc1ccc(Oc2ccnc3cc(OC)c(OC)cc23)cc1F (centres unmarked) [Compound 225] | < 100 | 100 to 1000 | –
7 | CCOc1cnn(C)c1C(=O)Nc1ccc(Oc2ccnc3cc(OC)c(OC)cc23)cn1 [Compound 30] | ≥ 1000 | ≥ 1000 | –
8 | CCOc1cn(-c2cnccc2CCN(C)C)nc1C(=O)Nc1ccc(Oc2ccnc3cc(OC)c(OC)cc23)cn1 [Compound 65] | < 100 | < 100 | –
9 | CCOc1cn(CCn2cccn2)nc1C(=O)Nc1ccc(Oc2ccnc3cc(OC)c(OC)cc23)cn1 [Compound 37] | < 100 | 100 to 1000 | –
10 | CCOc1cn(CC)nc1C(=O)Nc1ccc(Oc2ccnc3cc(OC)c(OC)cc23)cn1 [Compound 27] | < 100 | < 100 | –
11 | CCOc1cn(-c2cc[nH]c2)nc1C(=O)Nc1ccc(Oc2ccnc3cc(OC)c(OC)cc23)cn1 [Compound 32] | < 100 | < 100 | –
12 | CCOc1cn(-c2cnc(C#N)nc2)nc1C(=O)Nc1ccc(Oc2ccnc3cc(OC)c(OC)cc23)cn1 [Compound 55] | < 100 | < 100 | –
13 | CCOc1cn(CC(C)=O)nc1C(=O)Nc1ccc(Oc2ccnc3cc(OC)c(OC)cc23)cn1 [Compound 66] | < 100 | 100 to 1000 | –
14 | CCOc1cn(-c2cccnc2Cl)nc1C(=O)Nc1ccc(Oc2ccnc3cc(OC)c(OC)cc23)cn1 [Compound 19] | < 100 | < 100 | –
15 | CCOc1cn(-c2ccc(OC)cc2)nc1C(=O)Nc1ccc(Oc2ccnc3cc(OC)c(OC)cc23)cn1 [Compound 1] | < 100 | 100 to 1000 | –
16 | CCOc1oc(-c2cccnc2)nc1C(=O)Nc1ccc(Oc2ccnc3cc(OC)c(OC)cc23)cn1 [Compound 44] | < 100 | ≥ 1000 | –

Further lines, with some results ahead:

Row | Kd (Axl) [nM] | Kd (TYRO3) [nM] | SMILES | Combination effect of compound and erlotinib on inhibition activity in Erlotinib-resistant cell-line (HCC827/ER cells)
17 | 100 to 1000 | 100 to 1000 | COc1cc2nccc(Oc3ccc(NC(=O)c4nn(-c5ccc(F)cc5C5CCCC5)cc4OCC4CC4)nc3)c2cc1OC [Compound 270] | –
18 | < 100 | < 100 | CCOc1cn(-c2nccnc2C(C)(O)CO)nc1C(=O)Nc1ccc(Oc2ccnc3cc(OC)c(OC)cc23)cc1F (centres unmarked) [Compound 229] | –
19 | < 100 | < 100 | CCOc1cn(-c2cnccc2CO)nc1C(=O)Nc1ccc(Oc2ccnc3cc(OC)c(OC(F)(F)F)cc23)cn1 [Compound 233] | –
20 | < 100 | ≥ 1000 | COc1cc2nccc(Oc3ccc(NC(=O)c4nn(-c5cnc(N)nc5)cc4OC(F)F)nc3)c2cc1OC [Compound 254] | –
21 | < 100 | < 100 | COc1cc2nccc(Oc3ccc(NC(=O)c4nn(-c5ccc(F)cc5C)cc4OCC4CC4)nc3)c2cc1OC [Compound 258] | –
22 | ≥ 1000 | ≥ 1000 | CCOc1cn(-c2cnc(N)nc2)nc1C(=O)Nc1ccc(Oc2ccnc3cc(OC)c(OC(F)(F)F)cc23)cc1F [Compound 242] | –
23 | < 100 | < 100 | COc1cc2nccc(Oc3ccc(NC(=O)c4nn(-c5cnc(N)nc5)cc4OCC4CC4)nc3)c2cc1OC [Compound 240] | –
24 | < 100 | 100 to 1000 | CCOc1cn(Cc2cnccc2C)nc1C(=O)Nc1ccc(Oc2ccnc3cc(OC)c(OC)cc23)cc1F [Compound 226] | –
25 | < 100 | < 100 | CCOc1cn(-c2cnccc2CO)nc1C(=O)Nc1ccc(Oc2ccnc3cc(OC(C)C)c(OC)cc23)cc1F [Compound 231] | –
26 | < 100 | < 100 | COc1cc2nccc(Oc3ccc(NC(=O)c4nn(-c5cccnc5)cc4OCC4CC4)nc3)c2cc1OC(F)(F)F [Compound 239] | –
27 | < 100 | ≥ 1000 | CCOc1cn(-c2cnc(N)nc2)nc1C(=O)Nc1ccc(Oc2ccnc3cc(OC(C)C)c(OC)cc23)cc1F [Compound 230] | –
28 | < 100 | < 100 | COc1cc2nccc(Oc3ccc(NC(=O)c4nn(-c5cnc(N)nc5)cc4OCC4COC4)nc3)c2cc1OC [Compound 269] | –
29 | < 100 | < 100 | COc1cc2nccc(Oc3ccc(NC(=O)c4nn(-c5ccc(F)cc5F)cc4OCC(F)(F)F)nc3)c2cc1OC [Compound 268] | –
30 | 100 to 1000 | 100 to 1000 | COc1cc2nccc(Oc3ccc(NC(=O)c4nn(-c5ccc(F)cc5Oc5ccccc5)cc4OCC4CC4)nc3)c2cc1OC [Compound 272] | –
31 | 100 to 1000 | ≥ 1000 | COc1cc2nccc(Oc3ccc(NC(=O)c4nn(-c5cnc(N)nc5)cc4OCC4CNC4)nc3)c2cc1OC [Compound 265] | –
32 | < 100 | 100 to 1000 | COc1cc2nccc(Oc3ccc(NC(=O)c4nn(-c5ccc(F)cc5C(C)=O)cc4OCC4CC4)nc3)c2cc1OC [Compound 273] | –
33 | < 100 | < 100 | COc1cc2nccc(Oc3ccc(NC(=O)c4nn(-c5ccc(F)cc5OC)cc4OCC4CC4)nc3)c2cc1OC [Compound 264] | –
34 | < 100 | < 100 | COc1cc2nccc(Oc3ccc(NC(=O)c4nn(-c5ccc(F)cc5Cl)cc4OCC4CC4)nc3)c2cc1OC [Compound 263] | –
35 | < 100 | < 100 | COc1cc2nccc(Oc3ccc(NC(=O)c4nn(-c5cnc(N)nc5)cc4OCC(F)(F)F)c(F)c3)c2cc1OC [Compound 259] | –
